Reference: the supplement of paper PMC13207355
Counter-ions that a name gives are not always drawn.

Columns and labels:
Conditions in all cases: exposure time: 72 h
E31 [1] = patient-derived glioblastoma stem cells of proneural subtype; experiment: surviving fraction (nuclei count normalised to DMSO); higher = more cells surviving (less toxic)
E34 [2] = patient-derived glioblastoma stem cells of proneural subtype; experiment: as above
FT3469 [3] = normal neural stem cell line; experiment: as above
E13 [4] = patient-derived glioblastoma stem cells of classical subtype; experiment: as above
E21 [5] = patient-derived glioblastoma stem cells of mesenchymal subtype; experiment: as above
E28 [6] = patient-derived glioblastoma stem cells of classical subtype; experiment: as above
E57 [7] = patient-derived glioblastoma stem cells of mesenchymal subtype; experiment: as above
E31 [8] = experiment: phenotypic distance (Euclidean, principal components) from DMSO controls (arbitrary units); higher = stronger morphological change
E34 [9] = experiment: as above
FT3469 [10] = experiment: as above
E13 [11] = experiment: as above
E21 [12] = experiment: as above
E28 [13] = experiment: as above
E57 [14] = experiment: as above
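Wherever phenotypic distance (Euclidean, principal components) from DMSO controls is given: cell Painting imaging in 384-well plates, CellProfiler features reduced to at least 20 principal components, Euclidean distance versus same-plate DMSO vehicle wells (0.1% v/v), median over six images per well.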
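Wherever surviving fraction (nuclei count normalised to DMSO) is given: nuclei counted by high-content imaging of Hoechst-stained cells in laminin-coated 384-well plates, relative to 0.1% DMSO vehicle wells, with staurosporine as cell-death control.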

NC1CCN(c2nc3c(cc2F)c(=O)c(C(=O)O)cn3-c2ccc(F)cc2F)C1 (stereo unspecified) [Tosufloxacin hydrochloride]
Conditions | phenotypic distance | surviving fraction
E13 [4], 4.1 nM | – | 0.947
E13 [4], 12.3 nM | – | 1.13
E13 [4], 37 nM | – | 0.977
E13 [4], 111.1 nM | – | 1.05
E13 [4], 333.3 nM | – | 1.01
E13 [4], 1000 nM | – | 1
E13 [4], 3000 nM | – | 1.04
E13 [11], 4.1 nM | 0.747 | –
E13 [11], 12.3 nM | 0.689 | –
E13 [11], 37 nM | 0.471 | –
E13 [11], 111.1 nM | 0.593 | –
E13 [11], 333.3 nM | 0.883 | –
E13 [11], 1000 nM | 0.502 | –
E13 [11], 3000 nM | 0.704 | –
E21 [5], 4.1 nM | – | 0.969
E21 [5], 12.3 nM | – | 1.06
E21 [5], 37 nM | – | 1.02
E21 [5], 111.1 nM | – | 0.964
E21 [5], 333.3 nM | – | 0.988
E21 [5], 1000 nM | – | 0.989
E21 [5], 3000 nM | – | 0.906
E21 [12], 4.1 nM | 0.748 | –
E21 [12], 12.3 nM | 0.836 | –
E21 [12], 37 nM | 0.56 | –
E21 [12], 111.1 nM | 0.309 | –
E21 [12], 333.3 nM | 0.495 | –
E21 [12], 1000 nM | 0.751 | –
E21 [12], 3000 nM | 0.725 | –
E28 [6], 4.1 nM | – | 0.969
E28 [6], 12.3 nM | – | 1.18
E28 [6], 37 nM | – | 0.9
E28 [6], 111.1 nM | – | 1.12
E28 [6], 333.3 nM | – | 0.975
E28 [6], 1000 nM | – | 1.01
E28 [6], 3000 nM | – | 0.898
E28 [13], 4.1 nM | 3.44 | –
E28 [13], 12.3 nM | 0.615 | –
E28 [13], 37 nM | 0.624 | –
E28 [13], 111.1 nM | 0.684 | –
E28 [13], 333.3 nM | 0.493 | –
E28 [13], 1000 nM | 0.455 | –
E28 [13], 3000 nM | 0.886 | –
E31 [1], 4.1 nM | – | 0.78
E31 [1], 12.3 nM | – | 0.861
E31 [1], 37 nM | – | 0.987
E31 [1], 111.1 nM | – | 0.892
E31 [1], 333.3 nM | – | 1.06
E31 [1], 1000 nM | – | 0.836
E31 [1], 3000 nM | – | 0.849
E31 [8], 4.1 nM | 0.809 | –
E31 [8], 12.3 nM | 0.633 | –
E31 [8], 37 nM | 0.706 | –
E31 [8], 111.1 nM | 0.608 | –
E31 [8], 333.3 nM | 0.538 | –
E31 [8], 1000 nM | 0.815 | –
E31 [8], 3000 nM | 0.521 | –
E34 [2], 4.1 nM | – | 0.948
E34 [2], 12.3 nM | – | 0.869
E34 [2], 37 nM | – | 0.977
E34 [2], 111.1 nM | – | 0.985
E34 [2], 333.3 nM | – | 0.916
E34 [2], 1000 nM | – | 1.03
E34 [2], 3000 nM | – | 0.856
E34 [9], 4.1 nM | 0.608 | –
E34 [9], 12.3 nM | 0.861 | –
E34 [9], 37 nM | 0.802 | –
E34 [9], 111.1 nM | 0.784 | –
E34 [9], 333.3 nM | 0.625 | –
E34 [9], 1000 nM | 0.557 | –
E34 [9], 3000 nM | 0.971 | –
E57 [7], 4.1 nM | – | 1.03
E57 [7], 12.3 nM | – | 1.03
E57 [7], 37 nM | – | 1
E57 [7], 111.1 nM | – | 1.06
E57 [7], 333.3 nM | – | 0.946
E57 [7], 1000 nM | – | 1.09
E57 [7], 3000 nM | – | 0.903
E57 [14], 4.1 nM | 0.751 | –
E57 [14], 12.3 nM | 0.527 | –
E57 [14], 37 nM | 0.691 | –
E57 [14], 111.1 nM | 0.438 | –
E57 [14], 333.3 nM | 0.382 | –
E57 [14], 1000 nM | 0.743 | –
E57 [14], 3000 nM | 0.801 | –
FT3469 [3], 4.1 nM | – | 0.927
FT3469 [3], 12.3 nM | – | 0.952
FT3469 [3], 37 nM | – | 1.13
FT3469 [3], 111.1 nM | – | 0.908
FT3469 [3], 333.3 nM | – | 0.964
FT3469 [3], 1000 nM | – | 0.96
FT3469 [3], 3000 nM | – | 0.913
FT3469 [10], 4.1 nM | 0.676 | –
FT3469 [10], 12.3 nM | 0.401 | –
FT3469 [10], 37 nM | 0.584 | –
FT3469 [10], 111.1 nM | 0.591 | –
FT3469 [10], 333.3 nM | 3.26 | –
FT3469 [10], 1000 nM | 0.468 | –
FT3469 [10], 3000 nM | 0.933 | –

Cc1cc(Nc2cc(N3CCN(C)CC3)nc(Sc3ccc(NC(=O)C4CC4)cc3)n2)n[nH]1 [Tozasertib]
Conditions | phenotypic distance | surviving fraction
E13 [4], 4.1 nM | – | 0.866
E13 [4], 12.3 nM | – | 0.951
E13 [4], 37 nM | – | 0.797
E13 [4], 111.1 nM | – | 0.519
E13 [4], 333.3 nM | – | 0.467
E13 [4], 1000 nM | – | 0.391
E13 [4], 3000 nM | – | 0.413
E13 [11], 4.1 nM | 1.12 | –
E13 [11], 12.3 nM | 0.667 | –
E13 [11], 37 nM | 1.66 | –
E13 [11], 111.1 nM | 4.34 | –
E13 [11], 333.3 nM | 4.49 | –
E13 [11], 1000 nM | 4.52 | –
E13 [11], 3000 nM | 4.41 | –
E21 [5], 4.1 nM | – | 0.847
E21 [5], 12.3 nM | – | 0.898
E21 [5], 37 nM | – | 0.798
E21 [5], 111.1 nM | – | 0.743
E21 [5], 333.3 nM | – | 0.288
E21 [5], 1000 nM | – | 0.215
E21 [5], 3000 nM | – | 0.224
E21 [12], 4.1 nM | 1.38 | –
E21 [12], 12.3 nM | 0.727 | –
E21 [12], 37 nM | 1.05 | –
E21 [12], 111.1 nM | 2.02 | –
E21 [12], 333.3 nM | 5.67 | –
E21 [12], 1000 nM | 6.71 | –
E21 [12], 3000 nM | 6.04 | –
E28 [6], 4.1 nM | – | 0.971
E28 [6], 12.3 nM | – | 0.855
E28 [6], 37 nM | – | 0.81
E28 [6], 111.1 nM | – | 0.555
E28 [6], 333.3 nM | – | 0.535
E28 [6], 1000 nM | – | 0.453
E28 [6], 3000 nM | – | 0.482
E28 [13], 4.1 nM | 0.827 | –
E28 [13], 12.3 nM | 1.02 | –
E28 [13], 37 nM | 1.05 | –
E28 [13], 111.1 nM | 2.58 | –
E28 [13], 333.3 nM | 2.63 | –
E28 [13], 1000 nM | 2.85 | –
E28 [13], 3000 nM | 2.36 | –
E31 [1], 4.1 nM | – | 0.944
E31 [1], 12.3 nM | – | 0.959
E31 [1], 37 nM | – | 0.697
E31 [1], 111.1 nM | – | 0.423
E31 [1], 333.3 nM | – | 0.404
E31 [1], 1000 nM | – | 0.311
E31 [1], 3000 nM | – | 0.33
E31 [8], 4.1 nM | 0.87 | –
E31 [8], 12.3 nM | 0.54 | –
E31 [8], 37 nM | 1.16 | –
E31 [8], 111.1 nM | 3.12 | –
E31 [8], 333.3 nM | 2.58 | –
E31 [8], 1000 nM | 3.12 | –
E31 [8], 3000 nM | 2.47 | –
E34 [2], 4.1 nM | – | 0.814
E34 [2], 12.3 nM | – | 0.878
E34 [2], 37 nM | – | 0.929
E34 [2], 111.1 nM | – | 0.744
E34 [2], 333.3 nM | – | 0.711
E34 [2], 1000 nM | – | 0.728
E34 [2], 3000 nM | – | 0.722
E34 [9], 4.1 nM | 1.42 | –
E34 [9], 12.3 nM | 0.649 | –
E34 [9], 37 nM | 0.729 | –
E34 [9], 111.1 nM | 2.85 | –
E34 [9], 333.3 nM | 2.79 | –
E34 [9], 1000 nM | 2.34 | –
E34 [9], 3000 nM | 2.29 | –
E57 [7], 4.1 nM | – | 0.966
E57 [7], 12.3 nM | – | 0.942
E57 [7], 37 nM | – | 0.963
E57 [7], 111.1 nM | – | 0.484
E57 [7], 333.3 nM | – | 0.241
E57 [7], 1000 nM | – | 0.19
E57 [7], 3000 nM | – | 0.197
E57 [14], 4.1 nM | 0.542 | –
E57 [14], 12.3 nM | 0.685 | –
E57 [14], 37 nM | 0.782 | –
E57 [14], 111.1 nM | 4.65 | –
E57 [14], 333.3 nM | 7.94 | –
E57 [14], 1000 nM | 8.6 | –
E57 [14], 3000 nM | 8.14 | –
FT3469 [3], 4.1 nM | – | 0.899
FT3469 [3], 12.3 nM | – | 0.836
FT3469 [3], 37 nM | – | 0.773
FT3469 [3], 111.1 nM | – | 0.688
FT3469 [3], 333.3 nM | – | 0.737
FT3469 [3], 1000 nM | – | 0.697
FT3469 [3], 3000 nM | – | 0.579
FT3469 [10], 4.1 nM | 0.795 | –
FT3469 [10], 12.3 nM | 0.771 | –
FT3469 [10], 37 nM | 0.921 | –
FT3469 [10], 111.1 nM | 2.37 | –
FT3469 [10], 333.3 nM | 2.57 | –
FT3469 [10], 1000 nM | 2.47 | –
FT3469 [10], 3000 nM | 2.16 | –
